Here are results for 26 compounds from US7057048B2, “Androgen receptor antagonists” (Warner Lambert Company LLC, priority 2003, dated 2006).

A value given as a limit tells only on which side of the number the result lay.

The test has as its target T1, androgen receptor (Homo sapiens, UniProt P10275).
T1 sequence (P10275 1-920 Q868H): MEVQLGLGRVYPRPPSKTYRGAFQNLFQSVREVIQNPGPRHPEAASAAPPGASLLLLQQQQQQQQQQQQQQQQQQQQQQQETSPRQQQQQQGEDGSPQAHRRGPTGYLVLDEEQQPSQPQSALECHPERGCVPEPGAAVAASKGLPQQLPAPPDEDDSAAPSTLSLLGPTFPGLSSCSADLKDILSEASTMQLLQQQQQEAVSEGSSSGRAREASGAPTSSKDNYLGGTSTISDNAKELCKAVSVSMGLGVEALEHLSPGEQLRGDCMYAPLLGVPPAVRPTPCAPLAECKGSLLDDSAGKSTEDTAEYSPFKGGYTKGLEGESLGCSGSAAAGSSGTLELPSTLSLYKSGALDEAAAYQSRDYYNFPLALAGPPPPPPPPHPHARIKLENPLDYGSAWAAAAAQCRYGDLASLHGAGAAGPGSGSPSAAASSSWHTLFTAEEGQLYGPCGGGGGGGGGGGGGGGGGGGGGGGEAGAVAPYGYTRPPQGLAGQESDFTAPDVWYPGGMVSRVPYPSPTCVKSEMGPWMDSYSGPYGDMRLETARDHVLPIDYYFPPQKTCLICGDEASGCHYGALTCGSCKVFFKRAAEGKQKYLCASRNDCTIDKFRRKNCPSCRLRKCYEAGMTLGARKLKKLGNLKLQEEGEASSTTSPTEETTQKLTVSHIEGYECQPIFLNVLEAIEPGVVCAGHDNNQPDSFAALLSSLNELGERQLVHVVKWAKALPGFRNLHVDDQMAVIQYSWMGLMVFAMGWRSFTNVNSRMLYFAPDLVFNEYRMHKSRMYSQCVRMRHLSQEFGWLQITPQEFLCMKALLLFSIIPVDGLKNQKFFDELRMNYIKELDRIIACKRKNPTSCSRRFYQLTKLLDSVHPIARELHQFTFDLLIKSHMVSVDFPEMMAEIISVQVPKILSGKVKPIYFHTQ
Description: AR Antagonist Cell Assay (MMTV-luciferase reporter, DHT-stimulated). The note with it: MDA-MB453-MMTV clone 54-19 cells, inhibition of induction by 100 pM DHT, 17 hr. In kind it is cell-based. On the procedure:
The compounds ability to antagonize the effects of androgen on the androgen receptor were determined in the protocol described immediately below.
Experimental Procedure for AR Antagonist Cell Assay
Cell line: MDA-MB453-MMTV clone 54-19. This cell line is a stable transfected cell line with MDA-MB453 cell background (human breast tumor cell expressing high level of androgen receptor). A MMTV minimal promoter containing ARE was first cloned in front of a firefly luciferase reporter gene. Then the cascade was cloned into transfection vector pUV120puro. Electroporation method was used for transfecting MDA-MB-453 cell. Puromycin resistant stable cell line was selected.
Cell Culture Media and Reagents:
Culture medium: DMEM (high glucose, Gibco cat #: 11960-044), 10% FBS, and 1% L-glutamine
Plating medium: DMEM (phenol red free), 10% charcoal treated HyClone serum, 1% L-glutamine
Assay medium: DMEM (phenol red free), 1% charcoal treated HyClone serum, 1% L-glutamine, and 1% penicillin/streptomycin
3×luciferase buffer: 2% beta-mercaptoethanol, 0.6% ATP, 0.0135% luciferine in cell lysis buffer
• 1. Cells are maintained in culture medium, splitting cells when they reach 80–90% confluence • 2. To test compounds, 10,000 cells/well are plated to opaque 96 cell culture plate in 100 ul/well plating medium, culture for overnight at 37° C. in cell culture incubator • 3. Carefully remove plating medium, then add 80 ul/well of pre-warmed assay medium, add 10 ul/well testing compound (final concentration at 10 uM or 1 uM), incubate at 37° C. for 30 minutes • 4. Add 10 ul/well freshly prepared DHT (final concentration at 100 pM) to each well, incubate at 37° C. for 17 hr (overnight) • 5. Add 50 ul/well 3×luciferase buffer, incubate at room temperature for 5 minutes, then count on Luminometer
The fold induction over background by 100 pM DHT in the absence of testing compounds is standardized as 100% and experimental result is expressed as percentage of inhibition by testing compounds.
Background: In a reporter assay the amount or activity of a reporter protein is the signal.
As for `O=C(CN1CCN(S(=O)(=O)c2ccc(Cc3ccc4oc(=O)cc(C(F)(F)F)c4c3)cc2)CC1)N1CCCC1` [Example 47, 6-{4-[4-(2-Oxo-2-pyrrolidin-1-ylethyl)piperazine-1-sulfonyl]benzyl}-4-trifluoromethylchromen-2-one], the IC50 (commonly the concentration that gives 50% inhibition) was greater than 10 µM.

On to `O=c1cc(C(F)(F)F)c2cc(Cc3ccc(S(=O)(=O)N4CCN(CCCO)CC4)cc3)ccc2o1` [Example 31, 6-{4-[4-(3-Hydroxypropyl)piperazine-1-sulfonyl]benzyl}-4-trifluoromethylchromen-2-one], for which the IC50 turned out to be 8.2 µM.

With `CCOC(=O)C1CCN(S(=O)(=O)c2ccc(Cc3ccc4[nH]c(=O)cc(C(F)(F)F)c4c3)cc2)CC1` [Example 4], the IC50 was greater than 10 µM. The result for `O=c1cc(C(F)(F)F)c2cc(Cc3ccc(S(=O)(=O)N4CCN(CCO)CC4)cc3)ccc2[nH]1` [Example 10, 6-{4-[4-(2-Hydroxyethyl)piperazine-1-sulfonyl]benzyl}-4-trifluoromethyl-1H-quinolin-2-one] reads greater than 10 µM; that for `O=c1cc(C(F)(F)F)c2cc(Cc3ccc(S(=O)(=O)N4CCCC5CCCCC54)cc3)ccc2o1` (centres unmarked) [Example 53, 6-[4-(Octahydroquinoline-1-sulfonyl)benzyl]-4-trifluoromethylchromen-2-one], 4.2 µM. Compound `CCOC(=O)N1CCN(S(=O)(=O)c2ccc(Cc3ccc4oc(=O)cc(C(F)(F)F)c4c3)cc2)CC1` [Example 29, 4-[4-(2-Oxo-4-trifluoromethyl-2H-chromen-6-ylmethyl)-benzenesulfonyl]piperazine-1-carboxylic acid ethylester] came in with an IC50 greater than 10 µM. As to `O=C(CN1CCN(S(=O)(=O)c2ccc(Cc3ccc4[nH]c(=O)cc(C(F)(F)F)c4c3)cc2)CC1)N1CCCC1` [Example 13, 6-{4-[4-(2-Oxo-2-pyrrolidin-1-ylethyl)piperazine-1-sulfonyl]benzyl}-4-trifluoromethyl-1H-quinolin-2-one], the IC50 is greater than 10 µM. As for `COc1ccc(N2CCN(S(=O)(=O)c3ccc(Cc4ccc5[nH]c(=O)cc(C(F)(F)F)c5c4)cc3)CC2C)cc1` (centres unmarked) [Example 3, 6-{4-[4-(4-Methoxyphenyl)-3-methylpiperazine-1-sulfonyl]benzyl}-4-trifluoromethyl-1H-quinolin-2-one], the IC50 is greater than 10 µM.

`O=c1cc(C(F)(F)F)c2cc(Cc3ccc(S(=O)(=O)N4CCCCC4c4cccnc4)cc3)ccc2[nH]1` (centres unmarked) [Example 14, 6-[4-(3,4,5,6-Tetrahydro-2H-[2,3′]bipyridinyl-1-sulfonyl)benzyl]-4-trifluoromethyl-1H-quinolin-2-one] displayed a 50% inhibitory concentration (IC50) of 4.7 µM. With `O=c1cc(C(F)(F)F)c2cc(Cc3ccc(S(=O)(=O)N4CCC5(CC4)OCCO5)cc3)ccc2[nH]1` [Example 6, 6-[4-(1,4-Dioxa-8-azaspiro[4.5]decane-8-sulfonyl)benzyl]-4-trifluoromethyl-1H-quinolin-2-one], the half-maximal inhibitory concentration (IC50) is greater than 10 µM. Next, `COC(=O)[C@@H]1CCCN1S(=O)(=O)c1ccc(Cc2ccc3[nH]c(=O)cc(C(F)(F)F)c3c2)cc1` [Example 9, 1-[4-(2-Oxo-4-trifluoromethyl-1,2-dihydroquinolin-6-ylmethyl)benzenesulfonyl]-pyrrolidine-2-carboxylicacid methyl ester]: 5.4 µM; `CCOCCN1CCN(S(=O)(=O)c2ccc(Cc3ccc4oc(=O)cc(C(F)(F)F)c4c3)cc2)CC1` [Example 62, 6-{4-[4-(2-Ethoxyethyl)piperazine-1-sulfonyl]benzyl}-4-trifluoromethylchromen-2-one]: greater than 10 µM.

Compound `CC1CN(S(=O)(=O)c2ccc(Cc3ccc4oc(=O)cc(C(F)(F)F)c4c3)cc2)CC(C)O1` (centres unmarked) [Example 60, 6-[4-(2,6-Dimethylmorpholine-4-sulfonyl)benzyl]-4-trifluoromethylchromen-2-one] yielded a concentration for half-maximal inhibition (IC50) of 0.52 µM. The result for `O=c1cc(C(F)(F)F)c2cc(Cc3ccc(S(=O)(=O)N4CCCCC4CCO)cc3)ccc2o1` (centres unmarked) [Example 51, 6-{4-[2-(2-Hydroxyethyl)piperidine-1-sulfonyl]benzyl}-4-trifluoromethylchromen-2-one] reads greater than 10 µM; that for `O=c1cc(C(F)(F)F)c2cc(Cc3ccc(S(=O)(=O)N4CCCC4CO)cc3)ccc2o1` (centres unmarked) [Example 52, 6-[4-(2-Hydroxymethyl-pyrrolidine-1-sulfonyl)benzyl]-4-trifluoromethylchromen-2-one], 3.4 µM. Compound `O=c1cc(C(F)(F)F)c2cc(Cc3ccc(S(=O)(=O)N4CCCC(O)C4)cc3)ccc2o1` (centres unmarked) [Example 27, 6-[4-(3-Hydroxypiperidine-1-sulfonyl)benzyl]-4-trifluoromethylchromen-2-one] gave an IC50 greater than 10 µM. The compound `CCOC(=O)C1CCCN(S(=O)(=O)c2ccc(Cc3ccc4[nH]c(=O)cc(C(F)(F)F)c4c3)cc2)C1` (centres unmarked) [Example 1, 1-[4-(2-Oxo-4-trifluoromethyl-1,2-dihydroquinolin-6-ylmethyl)benzenesulfonyl]-piperidine-3-carboxylicacid ethyl ester] had an IC50 greater than 10 µM.

On to `O=c1cc(C(F)(F)F)c2cc(Cc3ccc(S(=O)(=O)N4CCCc5ccccc54)cc3)ccc2o1` [Example 65, 6-[4-(3,4-Dihydro-2H-sulfonyl)benzyl]-4-trifluoromethylchromen-2-one], for which the IC50 is 5.9 µM.

Compound `O=c1cc(C(F)(F)F)c2cc(Cc3ccc(S(=O)(=O)N4CCC5(CC4)OCCO5)cc3)ccc2o1` [Example 36, 6-[4-(1,4-Dioxa-8-azaspiro[4.5]decane-8-sulfonyl)benzyl]-4-trifluoromethylchromen-2-one] yielded an IC50 of 7.2 µM. On to `O=c1cc(C(F)(F)F)c2cc(Cc3ccc(S(=O)(=O)N4CCN(CCOCCO)CC4)cc3)ccc2o1` [Example 42, 6-(4-{4-[2-(2-Hydroxyethoxy)ethyl]-piperazine-1-sulfonyl}benzyl)-4-trifluoromethylchromen-2-one], for which the IC50 is greater than 10 µM. In the case of `COC(=O)[C@@H]1CCCN1S(=O)(=O)c1ccc(Cc2ccc3oc(=O)cc(C(F)(F)F)c3c2)cc1` [Example 41, 1-[4-(2-Oxo-4-trifluoromethyl-2H-chromen-6-ylmethyl)-benzenesulfonyl]pyrrolidine-2-carboxylic acidmethyl ester], the half-inhibitory concentration (IC50) was greater than 10 µM.

`COc1cc2c(cc1OC)CN(S(=O)(=O)c1ccc(Cc3ccc4[nH]c(=O)cc(C(F)(F)F)c4c3)cc1)CC2` [Example 5, 6-[4-(6,7-Dimethoxy-3,4-dihydro-1H-isoquinoline-2-sulfonyl)benzyl]-4-trifluoromethyl-1H-quinolin-2-one] yielded an IC50 greater than 10 µM. `O=c1cc(C(F)(F)F)c2cc(Cc3ccc(S(=O)(=O)N4CCCCC4)cc3)ccc2[nH]1` [Example 23, 6-[4-(Piperidine-1-sulfonyl)benzyl]-4-trifluoromethyl-1H-quinolin-2-one] came in with an IC50 greater than 10 µM.

Take `O=c1cc(C(F)(F)F)c2cc(Cc3ccc(S(=O)(=O)N4CCN(CCCN5CCCCC5)CC4)cc3)ccc2o1` [Example 38, 6-{4-[4-(3-Piperidin-1-ylpropyl)piperazine-1-sulfonyl]benzyl}-4-trifluoromethylchromen-2-one]: the 50% inhibitory concentration (IC50) is greater than 10 µM.

The compound `CC1CCN(S(=O)(=O)c2ccc(Cc3ccc4[nH]c(=O)cc(C(F)(F)F)c4c3)cc2)CC1` [Example 15, 6-[4-(4-Methylpiperidine-1-sulfonyl)benzyl]-4-trifluoromethyl-1H-quinolin-2-one] showed an IC50 greater than 10 µM.

`CN(C)CCN1CCN(S(=O)(=O)c2ccc(Cc3ccc4oc(=O)cc(C(F)(F)F)c4c3)cc2)CC1` [Example 55, 6-{4-[4-(2-Dimethylamino-ethyl)piperazine-1-sulfonyl]benzyl}-4-trifluoromethylchromen-2-one] showed an IC50 greater than 10 µM.
